{"source": "paper PMC9182347", "about": "“α-Glucosidase, α-Amylase and Antioxidant Evaluations of Isolated Bioactives from Wild Strawberry” (Molecules, 2022)", "key": {"[1]": {"test": "DPPH free radicals scavenging assay", "conditions": "for DPPH Percent Inhibition: mean ± SEM, n = 3", "protocol": "The antioxidant activity was carried out for F. indica extracts, semi-purified ethyl acetate fractions and isolated compounds using DPPH free radicals. DPPH solution was prepared (24 mg/100 mL of methanol). Stock solutions (1 mg/mL) of F. indica extracts and isolated compounds were prepared in methanol and then diluted to 1000, 500, 250, 125, 62.5 μg/mL. Sample and DPPH solutions were mixed in a ratio of 1:1 and were incubated at 23 °C for 30 min. Finally, absorbance was measured at 517 nm using UV spectrophotometer (Thermo electron corporation, Waltham, MA, USA). Ascorbic acid was used as positive control. Percent radical scavenging activity was measured using the reported equations [61].\n(§1) The half inhibitory concentration (IC50) was calculated using Microsoft Excel program as per our previously reported method."}, "[2]": {"biological_target": "α-amylase", "test": "In vitro α-amylase inhibition", "assay_type": "biochemical", "conditions": "for α-Amylase Percent Inhibition: mean ± SEM, n = 3", "protocol": "The amylase solution was prepared in phosphate buffer. The solutions of the F. indica and isolated compounds (62.50 to 1000 µg/mL) were added to the amylase solution and allowed to react. After reaction completion, starch solution was added and incubated as per the standard method. Afterwards, a solution of dinitro-salicylic acid was added to both test and control groups. The final solutions were heated for 3 min in boiling water and the absorbances were measured at […]. The experiments were performed in triplicates and percent inhibitions were calculated.\nas §1"}, "[3]": {"biological_target": "α-glucosidase (Saccharomyces cerevisiae, UniProt P53341)", "sequence (P53341 whole entry)": "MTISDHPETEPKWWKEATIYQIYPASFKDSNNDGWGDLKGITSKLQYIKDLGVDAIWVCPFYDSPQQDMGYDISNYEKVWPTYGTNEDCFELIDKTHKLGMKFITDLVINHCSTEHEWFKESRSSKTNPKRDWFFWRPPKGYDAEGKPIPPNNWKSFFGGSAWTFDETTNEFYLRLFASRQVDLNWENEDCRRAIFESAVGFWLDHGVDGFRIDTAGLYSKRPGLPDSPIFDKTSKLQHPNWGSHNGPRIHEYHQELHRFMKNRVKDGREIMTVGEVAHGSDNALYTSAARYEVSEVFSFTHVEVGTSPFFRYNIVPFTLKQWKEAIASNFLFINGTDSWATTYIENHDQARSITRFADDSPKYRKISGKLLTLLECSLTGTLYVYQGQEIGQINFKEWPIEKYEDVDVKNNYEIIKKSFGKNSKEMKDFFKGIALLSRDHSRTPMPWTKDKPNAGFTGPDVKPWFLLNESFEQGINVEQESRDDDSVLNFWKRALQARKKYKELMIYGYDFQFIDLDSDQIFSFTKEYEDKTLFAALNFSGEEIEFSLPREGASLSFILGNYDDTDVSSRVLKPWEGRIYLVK", "assay_type": "biochemical", "protocol": "The α-glucosidase solution (120 μL) of 0.50 U/mL in 0.10 M phosphate buffer (pH 6.90) was prepared and p-nitrophenyl-α-D-glucopyranoside (5 mM) was added as substrate solution. Different concentrations ranging from 62.50 µg/mL to 1000 µg/mL of the crude extracts, semi-purified fractions and isolated compounds of F. indica were prepared accordingly. The plant’s samples (extracts, semi-purified and purified compounds) were mixed with the solutions of enzyme as per the experiment and were incubated at 37 °C.\nAfter initial incubation for 15 min, 20 μL p-nitrophenyl-α-D-glucopyranoside solution was mixed and was again incubated in the same way. Finally, 80 μL solution of sod. carbonate (0.20 M) was added to finish up the reaction. The solution containing all the substrates except α-glucosidase served as a blank. The absorbances of experiments were measured at 405 nm. The experiments were repeated 3 times and the calculations were made as per the standard protocols.\nas §1"}}, "note": "Where “and” joins values, the source holds several entries; their conditions need not be identical. Equal entries are not always repeated.", "data": [{"smiles": "O=C1O[C@H]([C@@H](O)CO)C(O)=C1O", "note": "[Ascorbic acid]", "values": [{"measurement": "DPPH IC50", "setting": "[1]", "result": 4.98, "unit": "µg/mL"}, {"measurement": "DPPH Percent Inhibition", "setting": "[1]; 62.5 μg/mL", "result": "75.45 ± 0.90", "unit": "%"}, {"measurement": "DPPH Percent Inhibition", "setting": "[1]; 125 μg/mL", "result": "77.61 ± 0.43", "unit": "%"}, {"measurement": "DPPH Percent Inhibition", "setting": "[1]; 250 μg/mL", "result": "82.40 ± 0.20", "unit": "%"}, {"measurement": "DPPH Percent Inhibition", "setting": "[1]; 500 μg/mL", "result": "87.08 ± 0.47", "unit": "%"}, {"measurement": "DPPH Percent Inhibition", "setting": "[1]; 1000 μg/mL", "result": "91.90 ± 0.96", "unit": "%"}]}, {"smiles": "CC(C)=CC(=O)CC(C)c1ccc(C)cc1", "note": "(stereo not shown) [Compound 2, 2-methyl-6-(4-methylphenyl)-2-hepten-4-one]", "values": [{"measurement": "α-Amylase IC50", "setting": "[2]", "result": 16.56, "unit": "µg/mL"}, {"measurement": "DPPH IC50", "setting": "[1]", "result": 14.30, "unit": "µg/mL"}]}, {"smiles": "C[C@H]1O[C@H](O[C@H]2[C@H](O)[C@@H](O)[C@@H](O[C@H]3[C@H](O)[C@@H](O)C(O)O[C@@H]3CO)O[C@@H]2CO)[C@H](O)[C@@H](O)[C@@H]1N[C@H]1C=C(CO)[C@@H](O)[C@H](O)[C@H]1O", "note": "(stereo partly shown) [Acarbose, acarbose]", "values": [{"measurement": "α-Glucosidase Percent Inhibition", "setting": "[3]", "result": "96.00 ± 0.30% and 90.61 ± 0.43% and 84.03 ± 0.86% and 77.58 ± 0.77% and 71.48 ± 0.74%"}, {"measurement": "α-Amylase Percent Inhibition", "setting": "[2]; 62.5 μg/mL", "result": "63.26 ± 0.93", "unit": "%"}, {"measurement": "α-Amylase Percent Inhibition", "setting": "[2]; 125 μg/mL", "result": "67.05 ± 0.49", "unit": "%"}, {"measurement": "α-Amylase Percent Inhibition", "setting": "[2]; 250 μg/mL", "result": "71.56 ± 0.49", "unit": "%"}, {"measurement": "α-Amylase Percent Inhibition", "setting": "[2]; 500 μg/mL", "result": "74.03 ± 0.64", "unit": "%"}, {"measurement": "α-Amylase Percent Inhibition", "setting": "[2]; 1000 μg/mL", "result": "82.43 ± 0.52", "unit": "%"}]}, {"smiles": "COc1c(O)c(C)c(Cl)c(OC)c1Cl", "note": "[Compound 1, 2,4-dichloro-6-hydroxy-3,5-dimethoxytoluene]", "values": [{"measurement": "α-Amylase IC50", "setting": "[2]", "result": "15.03 µg/mL and 17.65 µg/mL"}, {"measurement": "DPPH IC50", "setting": "[1]", "result": 7.62, "unit": "µg/mL"}]}]}
